Results as given in PubChem BioAssay AID248 (DTP/NCI, 2004).
Values joined by “and” are separate entries in the source; they are usually repeats but may differ in a detail not shown here. Equal values may be shown once. Inconclusive results and toxic doses are left out. Cut-off read from the data, not from the text of the source: active = T/C of 150% or more; inactive = T/C below 125%.

Test system: L1210 leukemia ip in BDF1 mice, survival T/C
Assay: NCI In Vivo Anticancer Drug Screen. Data for tumor model L1210 Leukemia (intraperitoneal) in B6D2F1 (BDF1) mice
Conditions: endpoint: mean survival time, higher = longer survival
In short: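 Value reflects the ratio of survival in compound-treated mice to survival in vehicle-treated controls, with both groups carrying the same transplanted tumor.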

[1] = dose: 100.0 mg/kg/injection, schedule: Q04DX002 (ip), vehicle: saline with Tween-80
[2] = dose: 200.0 mg/kg/injection, schedule: Q04DX002 (ip), vehicle: saline with Tween-80
[3] = dose: 400.0 mg/kg/injection, schedule: Q04DX002 (ip), vehicle: saline with Tween-80
[4] = dose: 100.0 mg/kg/injection, schedule: Q04DX002 (ip), vehicle: Klucel (hydroxypropylcellulose) (HPC)
[5] = dose: 200.0 mg/kg/injection, schedule: Q04DX002 (ip), vehicle: Klucel (hydroxypropylcellulose) (HPC)
[6] = dose: 400.0 mg/kg/injection, schedule: Q04DX002 (ip), vehicle: Klucel (hydroxypropylcellulose) (HPC)
[7] = dose: 400.0 mg/kg/injection, schedule: Q01DX001 (ip), vehicle: carboxymethylcellulose (CMC)
[8] = dose: 100.0 mg/kg/injection, schedule: Q04DX003 (ip), vehicle: saline
[9] = dose: 200.0 mg/kg/injection, schedule: Q04DX003 (ip), vehicle: saline
[10] = dose: 100.0 mg/kg/injection, schedule: Q01DX001 (ip), vehicle: Klucel (hydroxypropylcellulose) (HPC)
[11] = dose: 200.0 mg/kg/injection, schedule: Q01DX001 (ip), vehicle: Klucel (hydroxypropylcellulose) (HPC)
[12] = dose: 400.0 mg/kg/injection, schedule: Q01DX001 (ip), vehicle: Klucel (hydroxypropylcellulose) (HPC)
[13] = dose: 50.0 mg/kg/injection, schedule: Q01DX009 (ip), vehicle: Klucel (hydroxypropylcellulose) (HPC)
[14] = dose: 50.0 mg/kg/injection, schedule: Q01DX001 (ip), vehicle: saline
[15] = dose: 100.0 mg/kg/injection, schedule: Q01DX001 (ip), vehicle: saline
[16] = dose: 200.0 mg/kg/injection, schedule: Q01DX001 (ip), vehicle: saline
[17] = dose: 100.0 mg/kg/injection, schedule: Q01DX009 (ip), vehicle: Klucel (hydroxypropylcellulose) (HPC)
[18] = dose: 100.0 mg/kg/injection, schedule: Q04DX003 (ip), vehicle: Klucel (hydroxypropylcellulose) (HPC)
[19] = dose: 200.0 mg/kg/injection, schedule: Q01DX009 (ip), vehicle: Klucel (hydroxypropylcellulose) (HPC)
[20] = dose: 200.0 mg/kg/injection, schedule: Q04DX003 (ip), vehicle: Klucel (hydroxypropylcellulose) (HPC)
[21] = dose: 400.0 mg/kg/injection, schedule: Q04DX003 (ip), vehicle: Klucel (hydroxypropylcellulose) (HPC)
[22] = dose: 400.0 mg/kg/injection, schedule: Q01DX001 (ip), vehicle: saline
[23] = dose: 100.0 mg/kg/injection, schedule: Q01DX009 (ip), vehicle: saline with Tween-80
[24] = dose: 200.0 mg/kg/injection, schedule: Q01DX009 (ip), vehicle: saline with Tween-80

Measured: T/C

O=C(Nc1cc(C(F)(F)F)ccc1Cl)c1ccccc1F
inactive: [1] 102 % of control | [2] 102 % of control | [3] 108 % of control

C=CCP(c1ccccc1)c1ccccc1
inactive: dose: 100.0 mg/kg/injection, schedule: Q04DX002 (ip), vehicle: saline 98 % of control | dose: 200.0 mg/kg/injection, schedule: Q04DX002 (ip), vehicle: saline 91 % of control

O=C(/C=C\c1cccc([N+](=O)[O-])c1)c1ccc(F)cc1
inactive: [4] 100 % of control | [5] 94 % of control | [6] 98 % of control

CCOc1ccc(NC2=C(OC)C(=O)C(Nc3ccc(OCC)cc3)=C(OC)C2=O)cc1
inactive: dose: 50.0 mg/kg/injection, schedule: Q01DX001 (ip), vehicle: carboxymethylcellulose (CMC) 99 % of control | [7] 93 % of control

C=CCNCC1OC(OC)C2OC(C)(C)OC12 (centres undefined)
inactive: dose: 50.0 mg/kg/injection, schedule: Q01DX009 (ip), vehicle: saline 101 % of control | dose: 100.0 mg/kg/injection, schedule: Q01DX009 (ip), vehicle: saline 104 % of control | [8] 109 % of control | dose: 200.0 mg/kg/injection, schedule: Q01DX009 (ip), vehicle: saline 104 % of control | [9] 102 % of control

CCOC(=O)c1ccc(N)cc1C(=O)OCC
inactive: [10] 93 % of control | [11] 95 % of control | [12] 87 % of control

O=C(/C=C/c1ccc([N+](=O)[O-])o1)c1cccc([N+](=O)[O-])c1
inactive: dose: 25.0 mg/kg/injection, schedule: Q01DX009 (ip), vehicle: Klucel (hydroxypropylcellulose) (HPC) 100 % of control | [13] 103 % of control

O=C(CI)c1ccc[nH]1
inactive: [14] 100 % of control | [15] 100 % of control | [16] 103 % of control

ClCC1CC2c3ccccc3C1c1ccccc12 (centres undefined)
inactive: [8] 94 % of control | [9] 87 % of control | dose: 400.0 mg/kg/injection, schedule: Q04DX003 (ip), vehicle: saline 90 % of control

NC(=O)C1CCN(C(=O)Nc2cc(C(F)(F)F)ccc2Cl)CC1
inactive: [10] 93 % of control | [17] 98 % of control and 102 % of control | [4] 103 % of control and 107 % of control | [18] 111 % of control | [11] 86 % of control | [19] 93 % of control and 98 % of control | [5] 100 % of control and 105 % of control | [20] 103 % of control | [12] 91 % of control | dose: 400.0 mg/kg/injection, schedule: Q01DX009 (ip), vehicle: Klucel (hydroxypropylcellulose) (HPC) 95 % of control | [6] 100 % of control | [21] 107 % of control

Nc1cc(=O)[nH]c(S(=O)O)n1
inactive: [13] 100 % of control | [17] 98 % of control | [19] 98 % of control

CCOC(=O)C1(C(=O)OCC)CCC2Nc3cc4c(cc3C(=O)N21)OCO4 (centres undefined)
inactive: dose: 12.5 mg/kg/injection, schedule: Q04DX003 (ip), vehicle: Klucel (hydroxypropylcellulose) (HPC) 99 % of control | dose: 25.0 mg/kg/injection, schedule: Q04DX003 (ip), vehicle: Klucel (hydroxypropylcellulose) (HPC) 100 % of control | dose: 50.0 mg/kg/injection, schedule: Q04DX003 (ip), vehicle: Klucel (hydroxypropylcellulose) (HPC) 96 % of control

COC(F)(F)C(Cl)Cl
inactive: [15] 95 % of control | [16] 101 % of control | [22] 95 % of control

COc1ccc(C(=O)/C=C/c2cccc([N+](=O)[O-])c2)cc1
inactive: dose: 50.0 mg/kg/injection, schedule: Q01DX009 (ip), vehicle: saline with Tween-80 97 % of control | [23] 97 % of control | [24] 97 % of control

CN1C(=O)CN=C(c2ccc[nH]2)c2cc(Cl)ccc21 (tested in a mixture with another compound)
inactive: [17] 96 % of control | [18] 103 % of control | [19] 91 % of control | [20] 102 % of control | [21] 105 % of control

Cc1nc2ccc(N=Cc3ccc(N(CCCl)CCCl)cc3C)cc2[nH]1
inactive: [18] 104 % of control | [20] 102 % of control | [21] 101 % of control

COC(OC)c1nc(N)[nH]c(=O)c1Cc1ccc([N+](=O)[O-])cc1
inactive: [10] 110 % of control | [11] 102 % of control | [12] 96 % of control

Cc1c2oc3c(C)ccc(C(=O)OCCN4CCCC4)c3nc-2c(C(=O)OCCN2CCCC2)c(N)c1=O
inactive: [1] 98 % of control | [2] 106 % of control | [3] 98 % of control

CCCCCCCCCCCCCCCCCC/C(CC)=N/Nc1ccc([N+](=O)[O-])cc1[N+](=O)[O-]
inactive: [10] 101 % of control | [11] 103 % of control | [12] 97 % of control

O=C(COc1ccc(Cl)c(Cl)c1)NCc1ccc[n+](Cc2ccc([N+](=O)[O-])cc2)c1
inactive: dose: 100.0 mg/kg/injection, schedule: Q04DX003 (ip), vehicle: saline with Tween-80 89 % of control | dose: 200.0 mg/kg/injection, schedule: Q04DX003 (ip), vehicle: saline with Tween-80 91 % of control | dose: 400.0 mg/kg/injection, schedule: Q04DX003 (ip), vehicle: saline with Tween-80 88 % of control

CCN(CC)CC(C)(C)/C=N/N=C(N)N
inactive: dose: 15.0 mg/kg/injection, schedule: Q01DX Z (ip), vehicle: saline 98 % of control | dose: 30.0 mg/kg/injection, schedule: Q01DX Z (ip), vehicle: saline 91 % of control | dose: 60.0 mg/kg/injection, schedule: Q01DX Z (ip), vehicle: saline 105 % of control

CCSCC1OC(n2cnc3c(N)nc(Cl)nc32)C(O)C1O (centres undefined)
inactive: dose: 12.5 mg/kg/injection, schedule: Q01DX001 (ip), vehicle: saline with Tween-80 100 % of control | dose: 25.0 mg/kg/injection, schedule: Q01DX001 (ip), vehicle: saline with Tween-80 100 % of control | dose: 50.0 mg/kg/injection, schedule: Q01DX001 (ip), vehicle: saline with Tween-80 102 % of control

CC(=O)OCC(O)C(O)C(O)C(O)C=O (centres undefined) (tested in a mixture with another compound)
inactive: [4] 92 % of control | [5] 103 % of control | [6] 95 % of control

C(=N\N=C\c1ccccc1)/c1ccccc1
inactive: [23] 97 % of control | [4] 98 % of control | [24] 100 % of control | [5] 91 % of control | dose: 400.0 mg/kg/injection, schedule: Q01DX009 (ip), vehicle: saline with Tween-80 100 % of control | [6] 102 % of control

Cc1ccccc1NC(=O)C1CCCC1=O (centres undefined)
inactive: [14] 101 % of control | [15] 103 % of control | [22] 109 % of control

COc1c(Cl)cc([N+](=O)[O-])cc1Cl
inactive: dose: 25.0 mg/kg/injection, schedule: Q01DX009 (ip), vehicle: gum acacia 100 % of control | dose: 50.0 mg/kg/injection, schedule: Q01DX009 (ip), vehicle: gum acacia 106 % of control

C=CCN(N=O)C(N)=O
inactive: dose: 12.5 mg/kg/injection, schedule: Q01DX Z (ip), vehicle: methylcellulose (MC) 106 % of control | dose: 25.0 mg/kg/injection, schedule: Q01DX Z (ip), vehicle: methylcellulose (MC) 108 % of control | dose: 50.0 mg/kg/injection, schedule: Q01DX Z (ip), vehicle: methylcellulose (MC) 117 % of control

CCOC(=O)c1ccc2c(c1)Cc1c-2cc(Br)c(N)c1Br
inactive: dose: 100.0 mg/kg/injection, schedule: Q01DX001 (ip), vehicle: carboxymethylcellulose (CMC) 100 % of control | dose: 200.0 mg/kg/injection, schedule: Q01DX001 (ip), vehicle: carboxymethylcellulose (CMC) 102 % of control | [7] 91 % of control

CCCCSc1nc(NCC)nc(NCC)n1
inactive: dose: 100.0 mg/kg/injection, schedule: Q04DX002 (sc), vehicle: olive oil, sesame oil, peanut oil 102 % of control | dose: 200.0 mg/kg/injection, schedule: Q04DX002 (sc), vehicle: olive oil, sesame oil, peanut oil 105 % of control | dose: 400.0 mg/kg/injection, schedule: Q04DX002 (sc), vehicle: olive oil, sesame oil, peanut oil 115 % of control
